Measurements: patent publication US5792457A, “Antibody recognizing endothelial cell ligand for leukocyte CR3” (priority 1995, dated 1998)

Tests used:
Factor X binding to CR3 = conditions: cited from earlier work
cerebral infarct = experiment: Rat transient middle cerebral artery occlusion (MCAO): infarct volume; format: in vivo, male Wistar rats; conditions: 50 nmol i.v. at reperfusion then 150 nmol i.p.; 2 hour MCAo, 2 day survival
[1] = tested on: blood-brain barrier permeability; experiment: Rat meningitis model (LOS): blood-brain barrier permeability (125I-albumin); format: in vivo, female Wistar rats; conditions: for BBB permeability: percent of radioactivity in whole blood present in CSF
Description: Briefly, anesthetized female Wistar rats were placed under a micromanipulator and inoculated intracisternally with a 25 gauge needle. After removal of 50 μl of CSF (without visible blood contamination), rats were inoculated intracisternally with 50 μl (20 ng) of LOS using a 1 ml syringe with a 25 gauge needle. Ten to fifteen minutes after inoculation with LOS, the rats were treated by intravenous administration of the test substance: a solution of an FHA peptide in PBS, a solution of a control peptide in PBS, or an equal volume of PBS alone.
Three hours after LOS inoculation, 5 μCi of ^125 I-radiolabelled albumin in 50 μl normal saline was administered intravenously. One hour later, CSF was collected via intracisternal puncture and blood samples were collected via intracardiac puncture. CSF leukocytosis was determined by manually counting white blood cells using a hemacytometer, and blood-brain barrier permeability was determined as the percent of radioactivity in whole blood that was present in the CSF. Blood samples were obtained immediately prior to inoculation, immediately prior to treatment, and at 4 hours post-inoculation for determination of peripheral white blood cell concentrations.

[2] = tested on: leukocyte migration into the CSF; experiment: Anti-inflammatory activity in rabbits with meningitis (FIG. 5, FIG. 6); format: in vivo, rabbit; conditions: intravenous
Source text: This inhibitory activity implies that antibodies to FHA which bind to any of the three Factor X regions would disturb leukocyte recruitment. This is to be distinguished from anti-FHA antibodies that bind to endothelia by recognizing an integrin receptor which is an endothelial cell component (see below). […] This is shown in FIG. 6 where various doses of antibody were given to rabbits and the number of leukocytes recruited into the cerebrospinal fluid in response to pneumonoccal meningitis was determined.

[3] = tested on: recognition of C3bi by antibody 12.1F9; experiment: Inhibition of binding of 12.1F9 to E^C3bi by peptides; set-up: species or system human; conditions: peptides 50 μg/ml
Source text: Values are normalized to a control value of 100; data are expressed as the mean±SD of 6 experiments with duplicate wells.

For GYDTKQEDG [Factor X II], the “inhibition of binding of CR3 bearing cells to Factor X (in words)” value (Factor X binding to CR3) is given as “competitively inhibit the binding of CR3 bearing tissue culture cells to purified Factor X”.

With RGDPHQGVLAQGDIIMDAKG [FHA Ca] the “volume of the infarct” value (cerebral infarct) was “approximately 25 % of the hemisphere”, the BBB permeability ([1]; 50 nmol) was 5.8 ± 2.7% and the BBB permeability ([1]; 100 nmol) was 3.0 ± 2.2%. The “Inhibition of blood-brain barrier permeability (in words)” value ([1]; rat, in vivo) was “appeared to be dose dependent”.

In the case of “native FHA: Filamentous hemagglutinin, 220kD surface associated protein of Bordetella pertussis (List Biologicals)”, the “antiinflammatory activity in meningitis (in words)” value [2] is reported as “antiinflammatory activity in the sense of inhibiting leukocyte migration into the CSF”, the “block of binding of 12.1F9 to E^C3bi (in words)” value [3] is reported as “blocked binding almost completely” and the Adherence index ([3]; normalized to control value of 100, 6 experiments) is reported as 16 ± 16.
